Measurements taken from PubChem BioAssay (NCI).
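Following 48 hours of exposure in 96-well plates, responses at five concentrations were used to interpolate endpoints linearly. Here, GI50 denotes the concentration required for 50% inhibition of growth. The concentration for full growth arrest is given as TGI.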

Legend:
Experiment in all cases: growth of human tumour cells (NCI), 48 h
SK-OV-3 ovarian = tested on: SK-OV-3 ovarian
LOX IMVI melanoma = tested on: LOX IMVI melanoma
T-47D breast = tested on: T-47D breast
A549 NSCLC = tested on: A549 NSCLC
OVCAR-3 ovarian = tested on: OVCAR-3 ovarian
HL-60(TB) leukemia = tested on: HL-60(TB) leukemia
MALME-3M melanoma = tested on: MALME-3M melanoma
MDA-MB-231 breast = tested on: MDA-MB-231 breast
HS 578T breast = tested on: HS 578T breast
SW-620 colon = tested on: SW-620 colon

Row | SMILES | GI50 (SK-OV-3 ovarian) [µM] | TGI (SK-OV-3 ovarian) [µM] | GI50 (LOX IMVI melanoma) [µM] | TGI (LOX IMVI melanoma) [µM] | GI50 (T-47D breast) [µM] | TGI (T-47D breast) [µM] | GI50 (A549 NSCLC) [µM] | TGI (A549 NSCLC) [µM] | GI50 (OVCAR-3 ovarian) [µM] | TGI (OVCAR-3 ovarian) [µM] | GI50 (HL-60(TB) leukemia) [µM] | TGI (HL-60(TB) leukemia) [µM] | GI50 (MALME-3M melanoma) [µM] | TGI (MALME-3M melanoma) [µM] | GI50 (MDA-MB-231 breast) [µM] | TGI (MDA-MB-231 breast) [µM] | GI50 (HS 578T breast) [µM] | TGI (HS 578T breast) [µM] | GI50 (SW-620 colon) [µM] | TGI (SW-620 colon) [µM]
1 | COc1ccc2c(c1)C(=O)/C(=C/c1ccc([N+](=O)[O-])o1)O2 | 5.36 | > 29.9 | 1.4 | 2.86 | 0.77 | 2.59 | 2.68 | > 22.8 | 0.878 | 2.22 | 1.74 | 4.19 | 1.61 | 3.48 | 1.41 | 3.17 | 2.58 | > 26.8 | 0.459 | 1.22
2 | C/C(=N\NC(=S)SCc1ccccc1)c1ccccn1 | – | – | – | 9.56 | – | > 42.6 | – | 20.5 | – | – | – | 1.04 | – | 7.4 | – | 4.08 | – | 26.3 | – | 9.86
3 | CCC(=O)Nc1ccc(C)c(-c2ccc(C(=O)NCC3CC3)cc2)c1 | > 25 | > 25 | > 25 | > 25 | 14.6 | > 25 | > 25 | > 25 | > 25 | > 25 | > 25 | > 25 | > 25 | > 25 | > 25 | > 25 | > 25 | > 25 | > 25 | > 25
4 | C/C(=C\c1cc(C(F)(F)F)n(-c2ccc(N)cc2)n1)[C@@H]1C[C@@H]2O[C@]2(C)CCC[C@H](C)[C@H](O)[C@@H](C)C(=O)C(C)(C)[C@@H](O)CC(=O)O1 | 0.0575 | > 11.1 | 0.0312 | > 11.1 | 0.0542 | > 11.1 | 0.0489 | > 11.1 | 0.0182 | 1.75 | 0.0168 | 2.68 | 0.089 | > 11.1 | 0.137 | > 11.1 | 0.0287 | 0.627 | 0.00554 | > 11.1
5 | O=C(/C=C/C12c3ccccc3C(c3ccccc31)C1C(=O)NC(=O)C12)c1ccc(F)cc1 (stereo not given) | 2.79 | 8.03 | 1.67 | 3.28 | 2.52 | 8.13 | 2.39 | 7.01 | 1.7 | 3.15 | 0.0217 | 2.1 | 1.97 | 4.02 | 3.05 | 9.58 | 2.28 | 7.84 | 2.12 | 4.59
6 | C=C1C(=O)O[C@H]2[C@H]1CC/C(COC(=O)C(C)c1ccc(CC(C)C)cc1)=C\CC[C@@]1(C)O[C@@H]21 (stereo not given in full) | 9.7 | 21.4 | 1.54 | 3.01 | 1.72 | 4.43 | 1.8 | 3.65 | 1.5 | 2.87 | 0.647 | 2.68 | 1.56 | 2.99 | 1.38 | 2.73 | 2.04 | 5.97 | 0.534 | 1.95
7 | CC1(C)NCCC[C@]2(C)[C@H]3CC[C@@H]4[C@H]5[C@H](C(=O)/C=C/c6ccccn6)CC[C@]5(CO)CC[C@@]4(C)[C@]3(C)CC[C@@H]12 | 12.9 | 30 | – | – | 2.78 | 16 | 2.88 | 11.2 | 2.14 | 4.89 | 1.84 | 4.7 | 1.77 | 3.51 | 2.29 | 5.64 | 4.39 | 23.6 | 1.82 | 3.49
8 | CSC(=S)OC1CC(n2cnc3c(NC(=O)c4ccccc4)ncnc32)OC1CO[Si](C)(C)C(C)(C)C (stereo not given) | – | > 46.4 | – | 47.2 | – | > 56.2 | – | > 100 | – | 34.4 | – | 32.6 | – | 51.9 | – | > 46.4 | – | > 56.2 | – | > 56.2
9 | Cc1cc2c(C(N)=O)c(N)n(-c3c(C)ccc(O)c3C)c2nc1C | 12.2 | 89 | 1.5 | 4.85 | 6.68 | > 100 | 4.53 | 47.4 | 3.07 | 14.7 | 4.4 | > 100 | 3.08 | 18.3 | 2.12 | 13.9 | 1.44 | 7.18 | 3.17 | 56.4
10 | NS(=O)(=O)c1ccc(N(/C=C/C(=O)C(F)(F)F)Cc2ccc(Cl)cc2)cc1 | 36 | > 100 | 21.8 | 42.9 | 20.8 | 97.5 | 27.7 | > 100 | 30.3 | > 100 | 39 | 78.3 | – | – | 18.3 | 57.8 | 38.1 | > 100 | 30.5 | > 100
11 | O=C(Nc1cccc(Cl)c1)c1cccc(NC2=C(Cl)C(=O)N(Cc3ccccc3)C2=O)c1 | > 100 | > 100 | 28.3 | > 100 | > 100 | > 100 | > 100 | > 100 | 24.3 | > 100 | 12.6 | 31.8 | – | – | 4.54 | > 100 | > 100 | > 100 | 58.6 | > 100
12 | CC(C(N)C(=O)NC(C(=O)O)C1OC(n2ccc(=O)[nH]c2=O)C(O)C1O)C(O)c1ccc(O)cn1 (stereo not given) | – | – | – | > 100 | – | > 100 | – | > 100 | – | > 100 | – | > 100 | – | – | – | > 100 | – | > 100 | – | > 100
13 | CN1CCN(c2ccc(NC(=O)c3cncnc3Nc3ccc(OCc4ccccn4)c(Cl)c3)cc2)CC1 | 4.79 | 11.2 | 3.39 | 8.46 | 1.98 | 7.83 | 2.22 | 7.71 | 5.23 | 13 | 4.11 | 9.28 | 0.886 | 3.69 | 2 | 6.56 | 4.17 | 13.5 | 1.14 | 4.63
14 | [N-]=[N+]=NCCCn1c2c(c3ccc([N+](=O)[O-])cc3c1=O)C(=O)c1cc(F)ccc1-2 | 2.82 | 19.3 | 0.343 | 1.86 | 0.295 | 3.08 | 5.14 | > 100 | 3.76 | 26 | 0.202 | 1.64 | 3.46 | 19.8 | 30.3 | > 100 | 36.5 | > 100 | 1.76 | > 100
